Source: the supplement of paper PMC10307832

Columns and labels:
Assay in all cases: relative viability (nuclei count vs DMSO), 5 days (fraction); higher = more cells survive
Palbociclib + Vorinostat = compound: CC(=O)c1c(C)c2cnc(Nc3ccc(N4CCNCC4)cn3)nc2n(C2CCCC2)c1=O [Palbociclib] + O=C(CCCCCCC(=O)Nc1ccccc1)NO [Vorinostat] (partner 1 µM)
Procedure, shortened: (§1)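 Values are medians from duplicate plates. Each reflects relative viability, defined as the nuclei count of treated wells over that of vehicle wells. Lung cancer cell lines in 1536-well plates were pin-tool dosed one day after seeding with one drug alone or with a fixed anchor-drug dose plus five library-drug doses (not always all listed) in √10 steps, then fixed, stained and imaged at 4× after 5 days.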

Palbociclib + Foretinib = compound: CC(=O)c1c(C)c2cnc(Nc3ccc(N4CCNCC4)cn3)nc2n(C2CCCC2)c1=O [Palbociclib] + COc1cc2c(Oc3ccc(NC(=O)C4(C(=O)Nc5ccc(F)cc5)CC4)cc3F)ccnc2cc1OCCCN1CCOCC1 [Foretinib] (partner 0.25 µM)
Procedure, shortened: as §1

Palbociclib + Alpelisib = compound: CC(=O)c1c(C)c2cnc(Nc3ccc(N4CCNCC4)cn3)nc2n(C2CCCC2)c1=O [Palbociclib] + Cc1nc(NC(=O)N2CCC[C@H]2C(N)=O)sc1-c1ccnc(C(C)(C)C(F)(F)F)c1 [Alpelisib] (partner 2 µM)
Procedure, shortened: as §1

Palbociclib + Phenformin = compound: CC(=O)c1c(C)c2cnc(Nc3ccc(N4CCNCC4)cn3)nc2n(C2CCCC2)c1=O [Palbociclib] + N=C(N)NC(=N)NCCc1ccccc1 [Phenformin] (partner 250 µM)
Procedure, shortened: as §1

Row | Cell Line | relative viability (Palbociclib + Vorinostat; first compound 0.01 µM) | relative viability (Palbociclib + Vorinostat; first compound 0.1 µM) | relative viability (Palbociclib + Vorinostat; first compound 0.3162 µM) | relative viability (Palbociclib + Vorinostat; first compound 1 µM) | relative viability (Palbociclib + Foretinib; first compound 0.01 µM) | relative viability (Palbociclib + Foretinib; first compound 0.03162 µM) | relative viability (Palbociclib + Foretinib; first compound 0.1 µM) | relative viability (Palbociclib + Foretinib; first compound 0.3162 µM) | relative viability (Palbociclib + Foretinib; first compound 1 µM) | relative viability (Palbociclib + Alpelisib; first compound 0.01 µM) | relative viability (Palbociclib + Alpelisib; first compound 0.03162 µM) | relative viability (Palbociclib + Alpelisib; first compound 0.1 µM) | relative viability (Palbociclib + Alpelisib; first compound 0.3162 µM) | relative viability (Palbociclib + Alpelisib; first compound 1 µM) | relative viability (Palbociclib + Phenformin; first compound 0.01 µM) | relative viability (Palbociclib + Phenformin; first compound 0.03162 µM) | relative viability (Palbociclib + Phenformin; first compound 0.1 µM) | relative viability (Palbociclib + Phenformin; first compound 0.3162 µM) | relative viability (Palbociclib + Phenformin; first compound 1 µM) | relative viability (Palbociclib + Vorinostat; first compound 0.03162 µM)
1 | LU99A | 0.517 | 0.435 | 0.587 | 0.399 | 0.782 | 0.82 | 0.765 | 0.724 | 0.583 | 0.539 | 0.432 | 0.425 | 0.39 | 0.33 | 0.851 | 0.507 | 0.688 | 0.837 | 0.602 | 
2 | HCC-366 | 0.388 | 0.289 | 0.213 | 0.135 | 0.919 |  | 0.893 | 0.953 | 0.797 | 0.517 |  | 0.345 | 0.209 | 0.204 | 0.626 |  | 0.645 | 0.427 | 0.396 | 
3 | HOP-62 | 0.499 | 0.423 | 0.482 | 0.395 | 0.881 |  | 1.02 | 0.958 | 0.735 | 0.851 |  | 0.797 | 0.831 | 0.648 | 0.642 |  | 0.644 | 0.502 | 0.47 | 
4 | NCI-H1734 | 0.731 | 0.619 | 0.649 | 0.48 | 0.831 | 0.683 | 0.608 | 0.686 | 0.503 | 0.637 | 0.588 | 0.539 | 0.537 | 0.374 | 0.435 | 0.337 | 0.307 | 0.286 | 0.247 | 0.459
5 | NCI-H3122 | 0.931 | 0.879 | 0.703 | 0.613 | 0.854 | 0.936 | 0.892 | 0.7 | 0.553 | 0.76 | 0.667 | 0.688 | 0.46 | 0.353 | 0.353 | 0.323 | 0.279 | 0.282 | 0.167 | 0.632
6 | RERF-LC-KJ | 0.724 | 0.66 | 0.747 | 0.682 | 0.868 | 0.761 | 0.88 | 0.861 | 0.898 | 0.893 | 0.866 | 0.827 | 0.798 | 0.867 | 0.419 | 0.414 | 0.418 | 0.459 | 0.485 | 0.613
7 | NCI-H2087 | 0.365 | 0.602 | 0.379 | 0.188 | 0.951 |  | 0.838 | 0.631 | 0.47 | 1.18 | 0.962 | 0.824 | 0.68 | 0.531 | 0.449 |  | 0.291 | 0.229 | 0.189 | 0.53
8 | 201T | 1.02 | 0.837 | 0.752 | 0.532 | 0.932 | 0.841 | 0.72 | 0.77 | 0.419 | 0.995 | 1.04 | 0.884 | 0.974 | 0.728 | 0.469 | 0.359 | 0.359 | 0.381 | 0.311 | 0.567
9 | ABC-1 | 1.18 | 0.552 | 1.03 | 0.453 | 0.963 | 0.808 | 0.852 | 0.763 | 0.709 | 1.28 | 0.91 | 0.785 | 0.751 | 0.412 | 0.227 | 0.202 | 0.232 | 0.233 | 0.24 | 1.03
